# Data from patent US9034897B2, “Indanyl-substituted 4,5,6,7-tetrahydro-1H-pyrazolo[4,3-C]pyridines, their use as medicament, and pharmaceutical preparations comprising them” (SANOFI, priority 2011, dated 2015).
# pIC50: −log10 of the molar value.
# Target: Human TASK-1 channels (Homo sapiens (Human), UniProt O14649)
# Assay: Activity on the TASK-1 channel in Xenopus oocytes (two-microelectrode voltage clamp)
# Format: cell-based
# Conditions: 5 μM; percentage inhibition of TASK-1 control current, Xenopus oocytes
# Protocol: Determination of the activity on the TASK-1 channel in Xenopus oocytes:
# Human TASK-1 channels were expressed in Xenopus oocytes. For this purpose, oocytes were isolated from Xenopus laevis and defolliculated. Subsequently, TASK-1-encoding RNA synthesized in vitro was injected into oocytes. After two days of TASK-1 protein expression, TASK-1 currents were measured by two-microelectrode voltage clamp. Data were acquired and analyzed using a TEC-10cx amplifier (NPI Electronic, Tamm, Germany) connected to an ITC-16 interface (Instrutech Corp., Long Island, USA) and Pulse software (HEKA Elektronik, Lambrecht, Germany). Oocytes were clamped to −90 mV and TASK-1 mediated currents were measured during 500 ms voltage pulses to 40 mV. Oocytes were continuously superfused with ND96 buffer containing: NaCl 96 mM, KCl2 mM, CaCl2 1.8 mM, MgCl2 1 mM, HEPES 5 mM (pH adjusted to 7.4 with NaOH). All experiments were performed at room temperature.
# Test substances were consecutively added to the bath solution at rising concentrations. Compound effects were calculated as the percentage inhibition of
# TASK-1 control current before compound application. IC50 values were obtained by fitting the data to the general dose-response equation.
# Chain of Human TASK-1 channels (O14649 whole entry): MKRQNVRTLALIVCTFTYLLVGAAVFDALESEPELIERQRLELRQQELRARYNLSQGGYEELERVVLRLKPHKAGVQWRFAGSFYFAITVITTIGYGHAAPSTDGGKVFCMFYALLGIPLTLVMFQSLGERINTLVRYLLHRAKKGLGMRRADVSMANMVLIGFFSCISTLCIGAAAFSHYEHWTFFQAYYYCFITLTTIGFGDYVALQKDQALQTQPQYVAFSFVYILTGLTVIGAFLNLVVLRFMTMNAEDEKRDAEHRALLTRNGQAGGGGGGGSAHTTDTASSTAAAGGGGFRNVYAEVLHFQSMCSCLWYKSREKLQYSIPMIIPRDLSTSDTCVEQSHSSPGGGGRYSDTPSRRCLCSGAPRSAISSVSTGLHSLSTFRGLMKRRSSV
row,Compound,inhibition at 5 µM
1,"CC(C)(C)C(=O)N1CCc2c(c(-c3cccc(C#N)c3)nn2[C@@H]2c3cc(F)cc(F)c3C[C@H]2O)C1 [Example 14d, 3-[1-((1R,2R)-4,6-Difluoro-2-hydroxy-indan-1-yl)-5-(2,2-dimethyl-propionyl)-4,5,6,7-tetrahydro-1H-pyrazolo[4,3-c]pyridin-3-yl]-benzonitrile]",94%
2,"COCC(=O)N1CCc2c(c(-c3cccc(C#N)c3)nn2[C@@H]2c3cc(F)cc(F)c3C[C@H]2O)C1 [Example 14e, 3-[1-((1R,2R)-4,6-Difluoro-2-hydroxy-indan-1-yl)-5-(2-methoxy-acetyl)-4,5,6,7-tetrahydro-1H-pyrazolo[4,3-c]pyridin-3-yl]-benzonitrile]",72%
3,"CCC(=O)O[C@@H]1Cc2c(F)cc(F)cc2[C@H]1n1nc(-c2cccc(C#N)c2)c2c1CCN(C(=O)CC)C2 [Example 15a, Propionic acid (1R,2R)-1-[3-(3-cyano-phenyl)-5-propionyl-4,5,6,7-tetrahydro-pyrazolo[4,3-c]pyridin-1-yl]-4,6-difluoro-indan-2-yl ester]",51%
4,"NC(=O)c1cccc(-c2nn([C@@H]3c4cc(F)cc(F)c4C[C@H]3O)c3c2CN(C(=O)C2CC2)CC3)c1 [Example 15b, 3-[5-Cyclopropanecarbonyl-1-((1R,2R)-4,6-difluoro-2-hydroxy-indan-1-yl)-4,5,6,7-tetrahydro-1H-pyrazolo[4,3-c]pyridin-3-yl]-benzamide]",24%
5,"N#Cc1cccc(-c2nn([C@@H]3c4cc(F)cc(F)c4C[C@H]3O)c3c2CN(CCC(F)(F)F)CC3)c1 [Example 18c, 3-[1-((1R,2R)-4,6-Difluoro-2-hydroxy-indan-1-yl)-5-(3,3,3-trifluoro-propyl)-4,5,6,7-tetrahydro-1H-pyrazolo[4,3-c]pyridin-3-yl]-benzonitrile]",91%
6,"COCCN1CCc2c(c(-c3cccc(C#N)c3)nn2[C@@H]2c3cc(F)cc(F)c3C[C@H]2O)C1 [Example 18d, 3-[1-((1R,2R)-4,6-Difluoro-2-hydroxy-indan-1-yl)-5-(2-methoxy-ethyl)-4,5,6,7-tetrahydro-1H-pyrazolo[4,3-c]pyridin-3-yl]-benzonitrile]",83%
7,"N#Cc1cccc(-c2nn([C@@H]3c4cc(F)cc(F)c4C[C@H]3O)c3c2CN(CC2CC2)CC3)c1 [Example 18e, 3-[5-Cyclopropylmethyl-1-((1R,2R)-4,6-difluoro-2-hydroxy-indan-1-yl)-4,5,6,7-tetrahydro-1H-pyrazolo[4,3-c]pyridin-3-yl]-benzonitrile]",81%
8,"CCCN1CCc2c(c(-c3ccc(F)cc3)nn2[C@@H]2c3cc(F)cc(F)c3C[C@H]2O)C1 [Example 18f, (1R,2R)-4,6-Difluoro-1-[3-(4-fluoro-phenyl)-5-propyl-4,5,6,7-tetrahydro-pyrazolo[4,3-c]pyridin-1-yl]-indan-2-ol]",67%
9,COCCN1CCc2c(c(-c3ccc(F)cc3)nn2[C@@H]2c3cc(F)cc(F)c3C[C@H]2O)C1 [Example 18g],56%
10,"NC(=O)c1cccc(-c2nn([C@@H]3c4cc(F)cc(F)c4C[C@H]3O)c3c2CN(CCC(F)(F)F)CC3)c1 [Example 18h, 3-[1-((1R,2R)-4,6-Difluoro-2-hydroxy-indan-1-yl)-5-(3,3,3-trifluoro-propyl)-4,5,6,7-tetrahydro-1H-pyrazolo[4,3-c]pyridin-3-yl]-benzamide]",39%
11,"CCc1cc(F)cc2c1C[C@@H](O)[C@@H]2n1nc(-c2cccc(C#N)c2)c2c1CCN(C(C)=O)C2 [Example 19b, 3-[5-Acetyl-1-((1R,2R)-4-ethyl-6-fluoro-2-hydroxy-indan-1-yl)-4,5,6,7-tetrahydro-1H-pyrazolo[4,3-c]pyridin-3-yl]-benzonitrile]",82%

# Same assay, conditions: human TASK-1 expressed in Xenopus oocytes, currents during 500 ms pulses to 40 mV, room temperature
row,Compound,pIC50
1,"CC(=O)N1CCc2c(c(-c3cccc(Cl)c3)nn2[C@@H]2c3cc(F)cc(F)c3C[C@H]2O)C1 [Example 11v, 1-[3-(3-Chloro-phenyl)-1-((1R,2R)-4,6-difluoro-2-hydroxy-indan-1-yl)-1,4,6,7-tetrahydro-pyrazolo[4,3-c]pyridin-5-yl]-ethanone]",5.93
2,"CC(=O)N1CCc2c(c(-c3ccc(C)cc3)nn2[C@@H]2c3cc(F)cc(F)c3C[C@H]2O)C1 [Example 11x, 1-[1-((1R,2R)-4,6-Difluoro-2-hydroxy-indan-1-yl)-3-p-tolyl-1,4,6,7-tetrahydro-pyrazolo[4,3-c]pyridin-5-yl]-ethanone]",5.82
3,"COc1cc(-c2nn([C@@H]3c4cc(F)cc(F)c4C[C@H]3O)c3c2CN(C(C)=O)CC3)ccc1F [Example 11y, 1-[1-((1R,2R)-4,6-Difluoro-2-hydroxy-indan-1-yl)-3-(4-fluoro-3-methoxy-phenyl)-1,4,6,7-tetrahydro-pyrazolo[4,3-c]pyridin-5-yl]-ethanone]",5.72
4,"CC(=O)N1CCc2c(c(-c3ccc(F)c(C#N)c3)nn2[C@@H]2c3cc(F)cc(F)c3C[C@H]2O)C1 [Example 11z, 5-[5-Acetyl-1-((1R,2R)-4,6-difluoro-2-hydroxy-indan-1-yl)-4,5,6,7-tetrahydro-1H-pyrazolo[4,3-c]pyridin-3-yl]-2-fluoro-benzonitrile]",5.67
5,"CC(=O)N1CCc2c(c(-c3ccc(F)cc3)nn2[C@@H]2CCc3ccccc32)C1 [Example 12a, 1-[(R)-3-(4-Fluoro-phenyl)-1-indan-1-yl-1,4,6,7-tetrahydro-pyrazolo[4,3-c]pyridin-5-yl]-ethanone]",6.15
6,"CC(=O)N1CCc2c(c(-c3ccc(F)cc3)nn2[C@H]2CCc3ccccc32)C1 [Example 12b, 1-[(S)-3-(4-Fluoro-phenyl)-1-indan-1-yl-1,4,6,7-tetrahydro-pyrazolo[4,3-c]pyridin-5-yl]-ethanone]",6.32
7,"CCC(=O)N1CCc2c(c(-c3cccc(C#N)c3)nn2[C@@H]2c3cc(F)cc(F)c3C[C@H]2O)C1 [Example 14a, 3-[1-((1R,2R)-4,6-Difluoro-2-hydroxy-indan-1-yl)-5-propionyl-4,5,6,7-tetrahydro-1H-pyrazolo[4,3-c]pyridin-3-yl]-benzonitrile]",7.15
8,"N#Cc1cccc(-c2nn([C@@H]3c4cc(F)cc(F)c4C[C@H]3O)c3c2CN(C(=O)C2CC2)CC3)c1 [Example 14b, 3-[5-Cyclopropanecarbonyl-1-((1R,2R)-4,6-difluoro-2-hydroxy-indan-1-yl)-4,5,6,7-tetrahydro-1H-pyrazolo[4,3-c]pyridin-3-yl]-benzonitrile]",7.08
9,"CC(C)C(=O)N1CCc2c(c(-c3cccc(C#N)c3)nn2[C@@H]2c3cc(F)cc(F)c3C[C@H]2O)C1 [Example 14c, 3-[1-((1R,2R)-4,6-Dif1uoro-2-hydroxy-indan-1-yl)-5-isobutyryl-4,5,6,7-tetrahydro-1H-pyrazolo[4,3-c]pyridin-3-yl]-benzonitrile]",6.60
10,"CO[C@@H]1Cc2c(F)cc(F)cc2[C@H]1n1nc(-c2cccc(C#N)c2)c2c1CCN(C(C)=O)C2 [Example 16a, 3-[5-Acetyl-1-((1R,2R)-4,6-difluoro-2-methoxy-indan-1-yl)-4,5,6,7-tetrahydro-1H-pyrazolo[4,3-c]pyridin-3-yl]-benzonitrile]",6.35
11,"CO[C@@H]1Cc2c(F)cc(F)cc2[C@H]1n1nc(-c2ccc(F)cc2)c2c1CCN(C(C)=O)C2 [Example 16b, 1-[1-((1R,2R)-4,6-Difluoro-2-methoxy-indan-1-yl)-3-(4-fluoro-phenyl)-1,4,6,7-tetrahydro-pyrazolo[4,3-c]pyridin-5-yl]-ethanone]",5.93
12,"COC(=O)N1CCc2c(c(-c3cccc(C#N)c3)nn2[C@@H]2c3cc(F)cc(F)c3C[C@H]2O)C1 [Example 17a, 3-(3-Cyano-phenyl)-1-((1R,2R)-4,6-difluoro-2-hydroxy-indan-1-yl)-1,4,6,7-tetrahydro-pyrazolo[4,3-c]pyridine-5-carboxylic acid methyl ester]",6.59
13,"O[C@@H]1Cc2c(F)cc(F)cc2[C@H]1n1nc(-c2ccc(F)cc2)c2c1CCN(CC1CC1)C2 [Example 18a, (1R,2R)-1-[5-cyclopropylmethyl-3-(4-fluoro-phenyl)-4,5,6,7-tetrahydro-pyrazolo[4,3-c]pyridin-1-yl]-4,6-difluoro-indan-2-ol]",6.30
14,"CC(C)N1CCc2c(c(-c3ccc(F)cc3)nn2[C@@H]2c3cc(F)cc(F)c3C[C@H]2O)C1 [Example 18b, (1R,2R)-4,6-Difluoro-1-[3-(4-fluoro-phenyl)-5-isopropyl-4,5,6,7-tetrahydro-pyrazolo[4,3-c]pyridin-1-yl]-indan-2-ol]",5.09
15,"CC(=O)N1CCc2c(c(-c3cccc(C#N)c3)nn2[C@@H]2c3cc(F)cc(C)c3C[C@H]2O)C1 [Example 19a, 3-[5-Acetyl-1-((1R,2R)-6-fluoro-2-hydroxy-4-methyl-indan-1-yl)-4,5,6,7-tetrahydro-1H-pyrazolo[4,3-c]pyridin-3-yl]-benzonitrile]",6.64
16,"CC(=O)N1CCc2c(c(-c3cccc(C#N)c3)nn2[C@@H]2c3cc(F)cc(C4CC4)c3C[C@H]2O)C1 [Example 20a, 3-[5-Acetyl-1-((1R,2R)-4-cyclopropyl-6-fluoro-2-hydroxy-indan-1-yl)-4,5,6,7-tetrahydro-1H-pyrazolo[4,3-c]pyridin-3-yl]-benzonitrile]",6.30
17,"CC(=O)N1CCc2c(c(-c3cccc(C#N)c3)nn2[C@@H]2c3cc(F)cc(Cl)c3C[C@H]2O)C1 [Example 21a, 3-[5-Acetyl-1-((1R,2R)-4-chloro-6-fluoro-2-hydroxy-indan-1-yl)-4,5,6,7-tetrahydro-1H-pyrazolo[4,3-c]pyridin-3-yl]-benzonitrile]",6.41
